How the values were obtained:
Format in all cases: in vivo, male mice (ddY-strain)
mice [1] = experiment: Acute toxicity (oral, 72 hours); conditions: for Safety margin (LD50 /ED50): potency ratio of the acute toxicity to the muscle relaxing activity, oral, mice
Procedure: (§1) A test compound dissolved or suspended in an aqueous 0.5% carboxymethylcellulose sodium salt solution was administered orally to a group of six male mice (ddY-strain, body weight: 18-20 g). The 50% lethal dose (LD50) of the test compound was calculated according to the probit method from the number of mice which died within a period of 72 hours after administration.

[2] = Acute toxicity (oral, 72 hours); conditions: mouse, in vivo; oral, mice, deaths within 72 hours, probit method
Procedure: as §1

mice [3] = experiment: Muscle relaxing activity (the rotating rod method)
Procedure: A test compound dissolved or suspended in an aqueous 0.5% carboxymethylcellulose sodium salt solution was administered orally to a group of three male mice (ddY-strain, body weight: 18-20 g). After administration of the test compound, the mice were placed on a rotating rod (3.5 cm in diameter, 7.5 r.p.m.) at intervals, and the number of mice which fell out of the rod at least twice within one minute was counted. The 50% effective dose (ED50) of the test compound was calculated therefrom according to the probit method.

Compound	Safety margin (LD50 /ED50) (mice [1])	safety margin, times as high as that of Mephenesin (mice [1]; acute toxicity to muscle relaxing activity ratio, relative to Mephenesin)	LD50 at 72 h [2]	ED50 (mice [3]; Mus musculus, oral, mice, rotating rod, probit method)	muscle relaxing activity, times stronger than that of Mephenesin (mice [3]; rotating rod method (mice), relative to Mephenesin)
Cc1ccccc1OCC(O)CO (stereo not drawn) [Mephenesin, 3-(o-tolyloxy)-1,2-propanediol, reference compound]	4.06	–	–	–	–
Cc1cc(Cl)ccc1-n1c(CF)nc2ccc(N)cc2c1=O [Test compound 1, 2-fluoromethyl-3-(2-methyl-4-chlorophenyl)-6-amino-4(3H)-quinazolinone]	51.6	about 12.7 times	702 mg/kg	13.6 mg/kg	about 36.6 times

— US4714702A, “Quinazolinone derivative” (Tanabe Seiyaku Co., Ltd., priority 1983, dated 1987)
